The data set is described as follows: In vitro permeation of oxytocin solution through NaOH-pretreated skin, Franz-type diffusion cells. The format is in vitro ADME, human. The protocol: The volume of receiver solution was 8 ml. […] Eighteen diffusion cells were used in this study. A 2% NaOH aqueous solution (50 μl) was introduced to the donor chambers of nine cells (cells #1 to 9) and a 4% NaOH aqueous solution (50 μl) was introduced to the donor chambers of the other nine cells (cells #10 to 18). Once the NaOH solution is applied, the donor chamber was covered with parafilm.
After 5 hours, the NaOH solution was washed away from the skin for 3 cells (cells #1 to 3) that were treated with 2% NaOH solution and 3 cells (cells #10 to 12) that were treated with 4% NaOH solution. […] After 24 hours, the NaOH solution was washed away from the skin for 3 cells (cells #7 to 9) that were treated with 2% NaOH solution and 3 cells (cells #16 to 18) that were treated with 4% NaOH solution. To wash away the NaOH solution, the receiving fluid was removed and replaced with fresh DI water. This was done twice. DI water was added to the donor chamber to dilute the NaOH solution and then the donor solution was removed. This was repeated several times.
After the NaOH solution was washed away from the skin, the solution in the donor chamber was completely removed and replaced by 50 μl of an oxytocin solution. Once the oxytocin solution is applied, the donor chamber was covered with parafilm.
The cells were filled with DI water as a receiver solution. The DI water had been degased to remove air bubbles. […] The samples taken were analyzed by HPLC for the concentration of oxytocin in the receiver solution. The cumulative amount of oxytocin across human cadaver skin was calculated using the measured oxytocin concentrations in the receiver solutions for each time point, which were listed in Table 46.
The volume of receiver solution was 8 ml. […] Eighteen diffusion cells were used in this study. A 0.25% NaOH aqueous solution (50 μl) was introduced to the donor chambers of nine cells (cells #1 to 9) and A 1.0% NaOH aqueous solution (50 μl) was introduced to the donor chambers of the other nine cells (cells #10 to 18). Once the NaOH solution is applied, the donor chamber was covered with parafilm.
After 5 hours, the NaOH solution was washed away from the skin for 3 cells (cells #1 to 3) that were treated with […] and 3 cells (cells #10 to 12) that were treated with 1.0% NaOH solution. After 11 hours, the NaOH solution was washed away from the skin for 3 cells (cells #4 to 6) that were treated with 0.25% NaOH solution and 3 cells (cells #13 to 15) that were treated with 1.0% NaOH solution. After 24 hours, the NaOH solution was washed away from the skin for 3 cells (cells #7 to 9) that were treated with 0.25% NaOH solution and 3 cells (cells #16 to 18) that were treated with 1.0% NaOH solution. To wash away the NaOH solution, the receiving fluid was removed and replaced with fresh DI water. This was done twice. DI water was added to the donor chamber to dilute the NaOH solution and then the donor solution was removed. This was repeated several times until the pH of donor solution was less than 8.
The cells were filled with DI water as a receiver solution. The DI water has been degased to remove air bubbles. […] The cumulative amount of oxytocin across human cadaver skin was calculated using the measured oxytocin concentrations in the receiver solutions for each time point, which were listed in Table 48.

Data on 1 compound can be found in patent publication US6586000B2, “Hydroxide-releasing agents as skin permeation enhancers” (Dermatrends, Inc., priority 1999, dated 2003).

With `CC[C@H](C)[C@@H]1NC(=O)[C@H](Cc2ccc(O)cc2)NC(=O)[C@@H](N)CSSC[C@@H](C(=O)N2CCC[C@H]2C(=O)N[C@@H](CC(C)C)C(=O)NCC(N)=O)NC(=O)[C@H](CC(N)=O)NC(=O)[C@H](CCC(N)=O)NC1=O` [Oxytocin, oxytocin], the “Cumulative Amount of Oxytocin Permeated Across Human Cadaver Skin” value (from here on “Cumulative Amount”) is listed as 0.45 μg/cm^2 (skin pretreated by 1.0% NaOH for 5 hr, 4.25 hours); 0.97 μg/cm^2 (skin pretreated by 1.0% NaOH for 5 hr, 24 hours); 0.97 μg/cm^2 (skin pretreated by 1.0% NaOH for 5 hr, […]); 53.42 μg/cm^2 (skin pretreated by 1.0% NaOH for 11 hr, 4.25 hours); 75.36 μg/cm^2 (skin pretreated by 1.0% NaOH for 11 hr, 24 hours); 67.97 μg/cm^2 (skin pretreated by 1.0% NaOH for 11 hr, […]). Also, the “Cumulative Amount” value (skin pretreated by 1.0% NaOH for 24 hr, 4.25 hours) was 13.23 μg/cm^2; the “Cumulative Amount” value (skin pretreated by 1.0% NaOH for 24 hr, 24 hours) is 30.97 μg/cm^2; the “Cumulative Amount” value (skin pretreated by 1.0% NaOH for 24 hr, […]) is recorded as 21.06 μg/cm^2; the “Cumulative Amount” value (skin pretreated by 4% NaOH for 5 hr, 5 hours) is on record as 118.95 μg/cm^2; the “Cumulative Amount” value (skin pretreated by 4% NaOH for 5 hr, 15 hours) worked out at 200.66 μg/cm^2; the “Cumulative Amount” value (skin pretreated by 4% NaOH for 5 hr, 24 hours) is 225.52 μg/cm^2. Besides, the “Cumulative Amount” value (skin pretreated by 4% NaOH for 15 hr, 5 hours) came out at 202.28 μg/cm^2; the “Cumulative Amount” value (skin pretreated by 4% NaOH for 15 hr, 15 hours) worked out at 222.45 μg/cm^2; the “Cumulative Amount” value (skin pretreated by 4% NaOH for 15 hr, 24 hours) amounted to 231.58 μg/cm^2; the “Cumulative Amount” value (skin pretreated by 4% NaOH for 24 hr, 5 hours) turned out to be 193.82 μg/cm^2; the “Cumulative Amount” value (skin pretreated by 4% NaOH for 24 hr, 15 hours) was determined as 232.72 μg/cm^2; the “Cumulative Amount” value (skin pretreated by 4% NaOH for 24 hr, 24 hours) worked out at 236.80 μg/cm^2.
